Test results from patent US20250222066A1, “COMPOSITIONS AND METHODS OF TREATING, PREVENTING OR INHIBITING A FACULTATIVE ANAEROBE INFECTION” (UNIVERSITY OF UTAH RESEARCH FOUNDATION, priority 2022, published 2025).
Entries after “also recorded” stand apart in the source; their conditions may differ. Read-outs that look alike come from different tables or passages of the source.

Experiments:
[1] = system: S. aureus ATCC 6538 biofilms; assay: CDC biofilm reactor coupons, 24 h antibiotic treatment, bioburden by serial dilution plating; assay type: cell-based; conditions: for anti-biofilm efficacy of hypoxia-activated prodrug compared with antibiotic controls: 1 mM compound with 1 mM nafcillin or 1 mM gentamicin, 24 h; for eradication of biofilms: concentrations over 60,000 X the MIC, 6,000 X the nephrotoxic and ototoxic thresholds, 25-50 X the cytotoxic limit; for synergy of the companion antibiotic with metronidazole against biofilms: 24 h treatment
Protocol: For determining the broad-spectrum utility of metronidazole, respective bacterial species were grown into stationary biofilms using a 2- or 3-day species-specific growth protocol in a CDC biofilm reactor on standard 0.5 in polycarbonate coupons. Each reactor holds up to 24 coupons/samples with adherent biofilms. Bacterial bioburden, represented as colony forming units (CFUs), from five reactor samples/coupons (n=5) were quantified by first dispersing the bacterial biofilms in 2 ml of PBS by standardized vortex-sonication technique and serial-dilution plating. Importantly, this quantification technique provides bioburden data with logarithmic sensitivity. […] The gray shaded regions represent standard deviations.
(§1) Three groups of 5 coupons/samples (n=5) were placed into 2 ml treatments either containing 0.5-1 mg/ml of gentamicin, metronidazole, or combinations thereof (in CAMHB) and incubated for 24 h at 37° C. Importantly, the total antibiotic concentration (mg/ml) was fixed for each sample to enable assessment of compound synergy.
After the 24 h treatment, the bacteria adhered to coupons were quantified by rinsing the samples very gently in excess PBS followed by vortexing and sonicating to disperse the biofilm in 2 ml PBS and subsequent serial-dilution plating. The bioburden of the adhered bacteria is represented by the blue bars in FIG. 1. […] Broth bioburden is represented by the red bars in FIG. 1.
Twelve hypoxia activated prodrugs from three categories were tested: nitroimidazoles (same class as metronidazole), nitrofurans, and anti-tumor agents.
To test each compound, the contents of an entire CDC-biofilm reactor (24 coupons/biofilm samples) were used (see FIG. 2 and FIG. 3). […] Using the methods described above, 4 reactor samples/coupons served as reactor controls. The remaining 20 samples/coupons were split into 4 treatment groups of 5 samples each (n=5).
For testing against S. aureus biofilms, the compounds were prepared at a concentration of 1 mM in CAMHB; coupons were treated in 2 ml for 24 h. Compounds were intentionally prepared in units of molarity rather than the more common weight/volume ratios of clinicians.
This choice was made for two reasons.
Two of the treatment groups were the same for each test: one in 1 mM nafcillin (a β-lactam antibiotic) and a second in 1 mM gentamicin. […] For comparison for most compounds 1 mM ranges from ˜0.15-0.5 mg/ml, 1 or 2 Log 2 dilutions below tests in FIG. 1. […] The other compounds were tested at the same concentrations.
Quantification of the post-treatment residual bioburden was performed by dispersing biofilm bacteria into the 2 ml treatments with its constituent bacteria by vortexing, and sonicating. […] The pelleted bacteria were resuspended and measured by the serial dilution plating technique. Thus, the values presented in FIGS. 2, 3 and 4 represent the cumulative change in bioburden from the surface-attached biofilms and bacteria in the treatments.

[2] = system: P. aeruginosa ATCC 27853 biofilms; assay: as above; assay type: cell-based; conditions: for anti-biofilm efficacy of hypoxia-activated prodrug compared with antibiotic controls: 1 mM compound with cefepime or 0.1 mM gentamicin, 24 h
Protocol: Twelve hypoxia activated prodrugs from three categories were tested: nitroimidazoles (same class as metronidazole), nitrofurans, and anti-tumor agents. For the screening, S. aureus ATCC 6538 was used with the best performing compounds subsequently tested against P. aeruginosa ATCC 27853; these pathogens can then be used as inocula for infection development in the animal work.
To test each compound, the contents of an entire CDC-biofilm reactor (24 coupons/biofilm samples) were used (see FIG. 2 and FIG. 3). These experiments were designed to have multiple internal controls to enable cross-data comparisons (see FIG. 4). Using the methods described above, 4 reactor samples/coupons served as reactor controls. The remaining 20 samples/coupons were split into 4 treatment groups of 5 samples each (n=5).
Two of the treatment groups were the same for each test: one in 1 mM nafcillin (a β-lactam antibiotic) and a second in 1 mM gentamicin. Likewise, the second two treatment groups had either 1 mM nafcillin or 1 mM gentamicin both with the addition of 1 mM of the compound tested. For comparison for most compounds 1 mM ranges from ˜0.15-0.5 mg/ml, 1 or 2 Log 2 dilutions below tests in FIG. 1. For testing of P. aeruginosa biofilms (FIG. 3), the β-lactam cefepime was substituted for nafcillin due to resistance and the gentamicin concentration was reduced from 1 to 0.1 mM because of excessive kill compared with S. aureus biofilms. The other compounds were tested at the same concentrations.
Quantification of the post-treatment residual bioburden was performed by dispersing biofilm bacteria into the 2 ml treatments with its constituent bacteria by vortexing, and sonicating. The antibiotic was removed from a representative aliquot (1 ml) sample, alternating steps of centrifugally pelleting the bacteria, removing 90% of the solution, replacing 90% of the solution and repeating 2 additional times thereby decreasing the antibiotic in solution below the MIC values. The pelleted bacteria were resuspended and measured by the serial dilution plating technique. Thus, the values presented in FIGS. 2, 3 and 4 represent the cumulative change in bioburden from the surface-attached biofilms and bacteria in the treatments.

[3] = system: biofilm-contaminated fixation plates; assay: Sheep model of biofilm-related orthopedic (musculoskeletal) infection; assay type: in vivo
Protocol: Use of the Pouch device in a sheep model of biofilm-related orthopedic infection. The Pouch device and two clinical standards of care (IV-vancomycin, and gentamicin-loaded Stimulan® beads) were tested in a sheep model of biofilm-related orthoepic infection. Briefly, the proximal medial aspect of the right tibia is subjected to a blast from an air cannon to simulate traumatic soft tissue damage. In a surgical procedure, the periosteum is stripped, and two biofilm-contaminated fixation plates are situated above osteotomized fractures. At necropsy, one of the fixation plates and the surrounding tissue serve for microbiological analysis whereas the plate and tissues of the second site are used for histological analysis. Four groups of sheep (n=5/group) were used in testing. The first group served as a positive control of infection. The Pouch device was tested in one group. The Pouch device was placed during the surgery and refilled daily for 10 days with 480 mg of gentamicin sulfate, 1 g of vancomycin, and 36 mg of rifampin. Ten days after surgery the Pouch device was removed, and the sheep monitored for an additional 11 days; endpoint was 21 days for the groups. For comparison, clinical standards of care were tested in the remaining two groups: IV vancomycin, and Gentamicin-loaded Stimulan® beads. […]

S. aureus biofilms = assay: Radical-scavenger edaravone protection of biofilms from metronidazole (FIG. 6); assay type: cell-based; conditions: 0-2 mg/ml edaravone with 0.25 mg/ml nafcillin and 4 mg/ml metronidazole, 24 h
Protocol: . S. aureus biofilms grown using a CDC biofilm reactor and treated with 2 ml solutions of CAMHB in 0.25 mg/ml nafcillin (serving as a bacteriostatic agent) and 4 mg/ml metronidazole (with herein established activity against biofilms) and the indicated concentration of the potent radical-scavenger edaravone (0-2 mg/ml). After treatment, the biofilm coupons were removed from the treatment broth, rinsed and the bioburden quantified using a method of vortexing, sonicating, and serial dilution plating.
In one experiment, S. aureus biofilms were subjected to a bacteriostatic solution of nafcillin (0.25 mg/ml) and an aggressive dose of metronidazole (4 mg/ml). The coupons were divided evenly into 5 groups (n=8) which were treated with serial concentrations of the potent radical scavenger edaravone ranging from 0-2 mg/ml. […]. In a second experiment, biofilms were treated with a small sublethal dose of the nitroimidazole pimonidazole (0.06 mg/ml). Like the other nitroimidazoles, pimonidazole is reductively activated in hypoxic cells by a nitro-reductase enzyme. In hypoxia, the reduced compound indiscriminately forms adducts with cellular components including adducts with thiol groups which can be recognized with a primary antibody by immunohistochemical staining (FIG. 5A and FIG. 9A) (Masaki, Y. et al. PLOS One 11, e0161639 (2016)). […]

S. epidermidis = assay: Minimum inhibitory concentration (MIC) assay, planktonic bacteria; assay type: cell-based, Staphylococcus epidermidis; conditions: for MIC: Staphylococcus epidermidis, for 1:1 combinations MIC is the sum of both compounds
Protocol: as §1
(§2) For comparison to these biofilm tests with adjunctive metronidazole, the MIC was determined for each organism and each compound tested.

S. aureus = assay: as above; assay type: cell-based
Description: Shortcomings of clinical antibiotic susceptibility assays. The antibiotic-susceptibility assays used to guide clinical treatment and prophylaxis rely on actively-dividing planktonic bacteria (Williams, D. L. & Costerton, J. W. J Biomed Mat Res B 100, 1163-1169 (2011)). Among the assays performed by clinical reference laboratories are the minimum inhibitory concentration (MIC), and disk diffusion (Kirby-Bauer) assays. The ubiquity of these assays is owed to the fact that they are high throughput, relatively quick to perform, repeatable, and have short turnaround times. They inform clinicians regarding which antibiotic are applicable for a given infection from a simple site swab, blood, or aspirate sample. […] Thus, when a compound, such as metronidazole performs poorly in an MIC assay, a physician would be thoroughly dissuaded from using it. Likewise, in drug-development, a high MIC value would exclude potentially useful anti-biofilm agents from candidate drug libraries. […] Using orthodox clinical methodology, there would be no basis to administer metronidazole in the treatment of a S. aureus-related infections, despite its exceptional efficacy against bacterial biofilms of the same isolates. The MIC assay fails to provide any information about susceptibility profiles of bacteria that reside in the biofilm phenotype.
as §2

A. baumannii = assay: as above; assay type: cell-based; conditions: for 1:1 combinations MIC is the sum of both compounds
Protocol: as §2

MRSA USA300 = assay: as above; assay type: cell-based; conditions: for 1:1 combinations MIC is the sum of both compounds
Protocol: as §2

P. aeruginosa = assay: as above; assay type: cell-based; conditions: for 1:1 combinations MIC is the sum of both compounds
Protocol: as §2

E. coli = assay: as above; assay type: cell-based, Escherichia coli; conditions: for 1:1 combinations MIC is the sum of both compounds
Protocol: as §2

K. pneumoniae = assay: as above; assay type: cell-based, Klebsiella pneumoniae; conditions: for 1:1 combinations MIC is the sum of both compounds
Protocol: as §2

## O=C1OC(CN2CCOCC2)CN1/N=C/c1ccc([N+](=O)[O-])o1 (stereo not shown) [furaltadone]
[1]
  anti-biofilm efficacy of hypoxia-activated prodrug compared with antibiotic controls: remarkable efficacy
[1]; paired with β-lactam (nafcillin; cefepime for P. aeruginosa)
  anti-biofilm efficacy with β-lactam antibiotics: considerable efficacy
[2]
  anti-biofilm efficacy of hypoxia-activated prodrug compared with antibiotic controls: remarkable efficacy

## CO/N=C(\C(=O)N[C@@H]1C(=O)N2C(C(=O)[O-])=C(C[N+]3(C)CCCC3)CS[C@H]12)c1csc(N)n1 [cefepime]
[2]; Gram-negative organisms
  synergy of the companion antibiotic with hypoxia-activated prodrugs: least synergistic

## CN[C@H](CC(C)C)C(=O)N[C@H]1C(=O)N[C@@H](CC(N)=O)C(=O)N[C@H]2C(=O)N[C@H]3C(=O)N[C@H](C(=O)N[C@H](C(=O)O)c4cc(O)cc(O)c4-c4cc3ccc4O)[C@H](O)c3ccc(c(Cl)c3)Oc3cc2cc(c3O[C@@H]2O[C@H](CO)[C@@H](O)[C@H](O)[C@H]2O[C@H]2C[C@](C)(N)[C@H](O)[C@H](C)O2)Oc2ccc(cc2Cl)[C@H]1O [vancomycin]
[1]
  eradication of biofilms: failed to eradicate
[3]; 21 days
  bioburden levels compared to the positive control: not statistically significantly different
[3]; 21 days after inoculation, treatment for 10 days, n=5 sheep/group
  reduction in bacterial bioburden from the initial inocula: 2.5 log10 units

## CC1=NN(c2ccccc2)C(=O)C1 [edaravone]
S. aureus biofilms
  effect on the killing of biofilms by metronidazole: neutralized the killing-effect of metronidazole in a dose dependent manner; also recorded: proportionally negates the killing power of metronidazole; also recorded: proportionally negate killing effects of metronidazole

## Nc1n[n+]([O-])c2ccccc2[n+]1[O-] [Tirapazamine]
[1]
  anti-biofilm efficacy of hypoxia-activated prodrug compared with antibiotic controls: significant activity
[2]
  anti-biofilm efficacy of hypoxia-activated prodrug compared with antibiotic controls: significant activity

## Cn1c(COP(=O)(NCCBr)NCCBr)cnc1[N+](=O)[O-] [Evofosfamide]
[1]
  anti-biofilm efficacy of hypoxia-activated prodrug compared with antibiotic controls: significant activity
[2]
  anti-biofilm efficacy of hypoxia-activated prodrug compared with antibiotic controls: significant activity

## NC(=O)N/N=C/c1ccc([N+](=O)[O-])o1 [nitrofurazone]
[1]
  anti-biofilm efficacy of hypoxia-activated prodrug compared with antibiotic controls: showed benchtop anti-biofilm utility

## C[C@H]1COc2c(N3CCN(C)CC3)c(F)cc3c(=O)c(C(=O)O)cn1c23 [Levofloxacin, levofloxacin]
S. epidermidis; aerobic, read-out: Aerobic MIC
  MIC: 0.125 µg/mL
S. epidermidis; anaerobic, read-out: Anaerobic MIC
  MIC: 0.125 µg/mL

## gentamicin
S. aureus; aerobic, for 1:1 combinations MIC is the sum of both compounds
  Aerobic MIC: 1 µg/mL
S. aureus; anaerobic, for 1:1 combinations MIC is the sum of both compounds
  Anaerobic MIC: 8 µg/mL
S. aureus; isolate used in biofilm tests
  MIC against S. aureus: 1 µg/mL
A. baumannii
  Aerobic MIC: 2 µg/mL
MRSA USA300; aerobic
  Aerobic MIC: 2 µg/mL
MRSA USA300; anaerobic
  Anaerobic MIC: 16 µg/mL
P. aeruginosa; aerobic
  Aerobic MIC: 2 µg/mL
P. aeruginosa; anaerobic
  Anaerobic MIC: 2 µg/mL
S. epidermidis; isolate used in FIG. 1
  resistance of the isolate: complete resistance
E. coli; aerobic
  Aerobic MIC: 0.5 µg/mL
E. coli; anaerobic
  Anaerobic MIC: 4 µg/mL
K. pneumoniae; aerobic
  Aerobic MIC: 2 µg/mL
K. pneumoniae; anaerobic
  Anaerobic MIC: 4 µg/mL
[1]
  synergy of the companion antibiotic with metronidazole against biofilms: synergistic; also recorded: considerably strengthened; also recorded: strong synergy
  eradication of biofilms: failed to eradicate

## CCOc1ccc2ccccc2c1C(=O)N[C@@H]1C(=O)N2[C@@H]1SC(C)(C)[C@@H]2C(=O)O [nafcillin]
[1]
  synergy of the companion antibiotic with metronidazole against biofilms: did not display synergy nor antagonism; also recorded: least synergistic
